Columns and labels:
[1] = target: T1, human soluble guanylate cyclase alpha 1 and beta 1 subunits (sGC) (Homo sapiens, UniProt Q02108+Q02153); experiment: sGC cellular activator assay (cGMP, HTRF); assay type: cell-based; details: CHO cells stably expressing human sGC alpha 1/beta 1, preincubated with 40 microM ODQ; cGMP readout; assay run with and without 50% human serum, Table 2 does not say which
T1 construct: expressed in transfected cells; host or cells: Chinese hamster ovary (CHO) cells, stably transfected
T1 sequence (Q02108 1-690): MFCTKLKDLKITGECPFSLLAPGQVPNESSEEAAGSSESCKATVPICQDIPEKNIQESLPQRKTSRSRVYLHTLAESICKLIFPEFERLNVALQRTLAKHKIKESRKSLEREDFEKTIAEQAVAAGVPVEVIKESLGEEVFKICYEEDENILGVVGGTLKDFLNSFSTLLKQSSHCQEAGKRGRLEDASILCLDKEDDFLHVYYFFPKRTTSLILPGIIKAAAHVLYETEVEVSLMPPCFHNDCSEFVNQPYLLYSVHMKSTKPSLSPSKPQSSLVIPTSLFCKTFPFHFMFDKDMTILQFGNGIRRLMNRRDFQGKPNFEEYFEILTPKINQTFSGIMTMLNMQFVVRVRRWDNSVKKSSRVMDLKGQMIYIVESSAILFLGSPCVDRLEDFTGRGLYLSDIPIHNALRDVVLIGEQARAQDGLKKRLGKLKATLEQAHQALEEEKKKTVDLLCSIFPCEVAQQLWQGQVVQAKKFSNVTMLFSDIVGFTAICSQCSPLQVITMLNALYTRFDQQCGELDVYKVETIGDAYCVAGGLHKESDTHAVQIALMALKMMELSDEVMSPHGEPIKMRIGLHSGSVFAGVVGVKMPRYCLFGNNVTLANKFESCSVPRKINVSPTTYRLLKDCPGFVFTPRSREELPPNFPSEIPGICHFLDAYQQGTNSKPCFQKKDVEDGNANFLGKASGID
T1 sequence (Q02153 1-619): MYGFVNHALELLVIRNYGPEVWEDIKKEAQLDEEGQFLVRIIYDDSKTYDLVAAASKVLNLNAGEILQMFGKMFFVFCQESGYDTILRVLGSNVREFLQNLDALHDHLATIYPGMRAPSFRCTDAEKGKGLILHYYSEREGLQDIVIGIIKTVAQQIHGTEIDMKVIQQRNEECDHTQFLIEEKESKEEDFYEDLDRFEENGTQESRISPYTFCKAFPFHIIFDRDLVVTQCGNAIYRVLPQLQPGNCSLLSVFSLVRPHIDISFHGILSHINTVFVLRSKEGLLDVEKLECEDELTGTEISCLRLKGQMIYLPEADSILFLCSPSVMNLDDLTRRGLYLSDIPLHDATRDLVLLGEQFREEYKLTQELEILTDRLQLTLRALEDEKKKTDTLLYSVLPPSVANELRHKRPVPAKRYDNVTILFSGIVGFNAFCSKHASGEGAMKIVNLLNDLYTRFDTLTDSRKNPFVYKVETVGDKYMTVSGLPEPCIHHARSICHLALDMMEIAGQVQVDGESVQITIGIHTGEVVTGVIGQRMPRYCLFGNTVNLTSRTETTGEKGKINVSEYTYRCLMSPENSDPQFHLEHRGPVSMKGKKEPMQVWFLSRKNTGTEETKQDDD
Procedure, shortened: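 First, CHO-sGC (human α1β1) cells get 1 h ODQ at 40 microM with IBMX and 0.1% BSA. Finally, cGMP is quantified by HTRF and EC50 computed.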

[2] = human liver microsome (HLM) metabolic stability assay; assay type: in vitro ADME; details: human liver microsomes; % hepatic blood flow calculated from t1/2
Procedure, shortened: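 Compounds at 1 uM incubated with human liver microsomes plus NADPH at 37° C., sampled at 0, 5, 15, 30 and 60 min into cold acetonitrile and quantified by LC/MS/MS. t½ from the slope of ln % remaining vs time; CLint, CLh and % Qh derived from it (n=1).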

Structure (SMILES) | EC50 [1] [nM] | HLM (% Qh) [2] [% Qh]
CCOc1c(C(=O)O)cnn1-c1cccc(-c2cccc(Cl)c2OCc2ccc3c(c2)CCN(CCOC)C3)n1 [Compound 58] | 82 | <24
COc1c(C(=O)O)cnn1-c1cccc(-c2cccc(C)c2OCc2ccc3c(c2)CCN(C2CCOC(C)(C)C2)C3)n1 (centres unmarked) [Compound 61] | 59 | <24
COc1c(C(=O)O)cnn1-c1cccc(-c2cccc(C)c2OCc2ccc3c(c2)CCN(C2CC(C)OC(C)C2)C3)n1 (centres unmarked) [Compound 62] | 24 | <24
COc1c(C(=O)O)cnn1-c1cccc(-c2cccc(F)c2OCc2ccc3c(c2)CCN(C2CCOCC2)C3)n1 [Compound 63] | 82 | <24
CCOc1c(C(=O)O)cnn1-c1cccc(-c2cccc(C)c2OCc2ccc3c(c2)CCN(C2CCOCC2C)C3)n1 (centres unmarked) [Compound 64] | 71 | <24
CCOc1c(C(=O)O)cnn1-c1cccc(-c2cccc(C)c2OCc2ccc3c(c2)CCN(C2CC(C)OC(C)C2)C3)n1 (centres unmarked) [Compound 65] | 56 | <24
CCOc1c(C(=O)O)cnn1-c1cccc(-c2cccc(C)c2OCc2ccc3c(c2)CCN(C2CCOC(C)(C)C2)C3)n1 (centres unmarked) [Compound 66] | 110 | <24
CCOc1c(C(=O)O)cnn1-c1cccc(-c2cccc(C)c2OCc2ccc3c(c2)CCN(C2CC(C)(C)OC(C)(C)C2)C3)n1 [Compound 67] | 320 | <24
CCOc1c(C(=O)O)cnn1-c1cccc(-c2cccc(C)c2OCc2ccc3c(c2)CCN(CC2CCOC2)C3)n1 (centres unmarked) [Compound 68] | 38 | <24
CCOc1c(C(=O)O)cnn1-c1cccc(-c2cccc(C)c2OCc2ccc3c(c2)CCN(CC2CCOCC2)C3)n1 [Compound 69] | 61 | <24
CCOc1c(C(=O)O)cnn1-c1cccc(-c2cccc(C)c2OCc2ccc3c(c2)CCN(C(C)CS(C)(=O)=O)C3)n1 (centres unmarked) [Compound 70] | 180 | <24
CCOc1c(C(=O)O)cnn1-c1cccc(-c2cccc(C)c2OCc2ccc3c(c2)CCN(C2CCOC2C)C3)n1 (centres unmarked) [Compound 71] | 67 | <24
COc1c(C(=O)O)cnn1-c1cccc(-c2cccc(C)c2OCc2ccc3c(c2)CCN(CC2CC2(F)F)C3)n1 (centres unmarked) [Compound 72, 1-(6-{2-[2-(2,2-difluoro-cyclopropylmethyl)-1,2,3,4-tetrahydro-isoquinolin-6-ylmethoxy]-3-methyl-phenyl}-pyridin-2-yl)-5-methoxy-1H-pyrazole-4-carboxylic acid] | 17 | 47
COc1c(C(=O)O)cnn1-c1cccc(-c2cccc(C)c2OCc2ccc3c(c2)CCN(C2CC(C)(C)OC(C)(C)C2)C3)n1 [Compound 73] | 250 | 36
COc1c(C(=O)O)cnn1-c1cccc(-c2cccc(C)c2OCc2ccc3c(c2)CCN(CCS(C)(=O)=O)C3)n1 [Compound 74] | 73 | <24
COc1c(C(=O)O)cnn1-c1cccc(-c2cccc(C)c2OCc2ccc3c(c2)CCN(C2C4CCOC4C2(C)C)C3)n1 (centres unmarked) [Compound 75] | 23 | 31
CCOc1c(C(=O)O)cnn1-c1cccc(-c2cccc(C)c2OCc2ccc3c(c2)CCN(C2CCOCC2)C3)n1 [Compound 77] | 31 | <24

Structure (SMILES) | EC50 [1] [nM] | HLM (% Qh) [2] [% Qh]
CCOc1c(C(=O)O)cnn1-c1cccc(-c2cccc(C)c2OCc2ccc3c(c2)CCN(C2CCOC(C)C2)C3)n1 (centres unmarked) [Compound 78] | 48 | <24
CCOc1c(C(=O)O)cnn1-c1cccc(-c2cccc(C)c2OCc2ccc3c(c2)CCN(C2CCOC(CC)C2)C3)n1 (centres unmarked) [Compound 79] | 33 | <24
CCOc1c(C(=O)O)cnn1-c1cccc(-c2cccc(C)c2OCc2ccc3c(c2)CCN(CC2CCOC(C)(C)C2)C3)n1 (centres unmarked) [Compound 80] | 45 | <24
COc1c(C(=O)O)cnn1-c1cccc(-c2cccc(C)c2OCc2ccc3c(c2)CCN(C2CCOCC2OC)C3)n1 (centres unmarked) [Compound 81] | 410 | <24
COc1c(C(=O)O)cnn1-c1cccc(-c2cccc(C)c2OCc2ccc3c(c2)CN(CC2CC(F)(F)C2)C3)n1 [Compound 82] | 8 | <24
COc1c(C(=O)O)cnn1-c1cccc(-c2cccc(C(F)(F)F)c2OCc2ccc3c(c2)CCN(C2CCOCC2)C3)n1 [Compound 83] | 29 | <24
COc1c(C(=O)O)cnn1-c1cccc(-c2cccc(C(F)(F)F)c2OCc2ccc3c(c2C)CCN(C2CCOCC2)C3)n1 [Compound 84] | 9 | <24
COc1c(C(=O)O)cnn1-c1cccc(-c2cccc(C)c2OCc2ccc3c(c2)CN(C2COC2)C3)n1 [Compound 85] | 22 | <24
COc1c(C(=O)O)cnn1-c1cccc(-c2cccc(C)c2OCc2ccc3c(c2)CCN(C2CCOCC2C)C3)n1 (centres unmarked) [Compound 86] | 41 | <24
COc1c(C(=O)O)cnn1-c1cccc(-c2cccc(C)c2OCc2ccc3c(c2)CCN(C2CC4CCC(C2)O4)C3)n1 (centres unmarked) [Compound 87] | 55 | <24
COc1c(C(=O)O)cnn1-c1cccc(-c2cccc(C(F)(F)F)c2OCc2ccc3c(c2C)CCN(C2COC2)C3)n1 [Compound 88] | 28 | <24
COc1c(C(=O)O)cnn1-c1cccc(-c2cccc(C)c2OCc2ccc3c(c2)C(C)(C)CN(C2CCOCC2)C3)n1 [Compound 89] | 150 | 76
COc1c(C(=O)O)cnn1-c1cccc(-c2cccc(C)c2OCc2ccc3c(c2)CCN([C@H]2CC[C@H](OC)CC2)C3)n1 [Compound 90] | 69 | <24
COc1c(C(=O)O)cnn1-c1cccc(-c2cccc(C)c2OCc2ccc3c(c2)CCN([C@H]2CC[C@@H](OC)CC2)C3)n1 [Compound 91] | 75 | <24
COc1c(C(=O)O)cnn1-c1cccc(-c2cccc(C)c2OCc2ccc3c(c2)CCN(CC2COCCO2)C3)n1 (centres unmarked) [Compound 92] | 20 | <24
COc1c(C(=O)O)cnn1-c1cccc(-c2cccc(C(F)(F)F)c2OCc2ccc3c(c2)CN(C2CCOCC2)C3)n1 [Compound 93] | 37 | <24
CCOc1c(C(=O)O)cnn1-c1cccc(-c2cccc(C)c2OCc2ccc3c(c2)CCN(C2CCOCC2F)C3)n1 (centres unmarked) [Compound 94] | 45 | <24
